Data as given in article PMC7072302 (Biomolecules, 2020).

Biological target: T1, tyrosinase (Agaricus bisporus, UniProt C7FF04)
T1 construct: purchased Sigma-Aldrich T3824
Assay: Tyrosinase enzymatic assay (L-tyrosine substrate, absorbance at 475 nm)
Assay type: biochemical
Settings: for Ki: Dixon plot, read-out: Ki (inhibition constant); for inhibition at 100 µM: compound concentration 100 μM, L-tyrosine substrate, triplicate, mean ± SD, read-out: Inhibition Rate (%) at 100 μM; for IC50: concentrations 3.1 to 100 μM, mean ± SD (n = 3)

T1 sequence (C7FF04 1-392 limits assumed): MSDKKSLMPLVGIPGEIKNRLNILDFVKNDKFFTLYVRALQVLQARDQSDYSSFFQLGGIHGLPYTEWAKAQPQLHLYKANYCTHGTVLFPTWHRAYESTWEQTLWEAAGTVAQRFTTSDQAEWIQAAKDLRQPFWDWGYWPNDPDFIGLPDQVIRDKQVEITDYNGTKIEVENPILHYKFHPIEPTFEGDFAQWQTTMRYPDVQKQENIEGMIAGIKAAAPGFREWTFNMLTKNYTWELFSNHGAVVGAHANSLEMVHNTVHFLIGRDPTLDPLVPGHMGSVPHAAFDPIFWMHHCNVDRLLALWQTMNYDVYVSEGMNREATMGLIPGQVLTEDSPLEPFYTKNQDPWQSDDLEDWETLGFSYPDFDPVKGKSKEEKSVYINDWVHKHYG

SMILES	Ki [µM]	inhibition at 100 µM [%]	IC50 [µM]
COc1cc(C(=O)OCCCCN=C(N)N)cc(OC)c1OC [Compound 1, 10-methoxy-leonurine]	1.6	> 80	7.4 ± 0.4
COc1cc(C(=O)OCCCCNC(=N)N)cc(OC)c1O [Compound 2, leonurine]	11.4	> 80	12.4 ± 0.8
COc1cc(C(=O)O)cc(OC)c1O [Compound 3, syringic acid]		11.6 ± 0.1	
O=c1c(O[C@@H]2O[C@H](CO)[C@@H](O)[C@H](O)[C@H]2O)c(-c2ccc(O)c(O)c2)oc2cc(O)cc(O)c12 [Compound 4, isoquercitrin]		1.8 ± 5.9	
